Data set [1] concerns HuPrime® liver cancer LI6664 subcutaneous xenograft PDX model. The experiment in a line: Liver cancer LI6664 subcutaneous xenograft PDX efficacy model. The class given is in vivo, BALB/c nude mice. The note with it: all AST-3424 treatment groups (0.3, 1, 1.25 mg/kg).
The conditions of data set [2]: cited from earlier work.
For data set [3], the system named is human liver cancer (HepG2-GFP) orthotopic CDX model. The experiment in a line: Human liver cancer orthotopic CDX efficacy model (QW×2 regimen). The conditions noted are these: 1.25, 2.5, 5 mg/kg, QW×2, drug free one week, QW×2, I.V.; significant dose-effect relationship. The class given is in vivo, nude mice. The text has this:
The data from this experiment correspond to the data of the HepG2 model in Example 3-1 of the aforementioned Patent Application 2 (see Table 5 and Figures 4A, 4B of this application).

A short description of data set [4]: Toxicokinetics (D1+D8/21 Days) in monkeys. The class given is in vivo, cynomolgus monkeys. The note with it: both sexes, cynomolgus monkey, in vivo, iv.
Data set [5] concerns HuPrime® pancreatic cancer PA1170 subcutaneous xenograft model. The experiment in a line: Pancreatic cancer PA1170 subcutaneous xenograft efficacy model. The conditions noted are these: for TGI (%): Day 30, P<0.05; for mean tumor volume: Day 30 after first administration. The class given is in vivo, BALB/c nude mice.
Data set [6] deals with HuPrime® lung cancer LU5161 subcutaneous xenograft model. The text has this:
For the experimental procedures and relevant evaluation indicators of the aforementioned solid tumor animal efficacy models, please refer to Examples 7, 8, and 9 in Patent Application 1, namely PCT/US2016/062114, with Publication No. WO2017/087428 (corresponding to Chinese Application CN201680044608.1, with Publication No. CN108290911B), Examples 3 and 4 in Patent Application 2, namely PCT/CN2021/078115, with Publication No. WO2022178821, and Research Literature 1. The aforementioned non-clinical animal efficacy models (PDX) mentioned in the present application are all similar to those in the aforementioned literatures, and the specific operation procedures thereof are not described herein again.
LU5161 is a HuPrime® xenograft model established from a lung tumor (small cell lung cancer) of a patient.
Efficacy was evaluated based on the relative tumor growth inhibition rate (TGI, %), and safety was evaluated based on animal body weight changes and mortality.

The subject of data set [7] is HuPrime® pancreatic cancer PA9451 subcutaneous xenograft model. The experiment in a line: Pancreatic cancer PA9451 subcutaneous xenograft efficacy model. The conditions noted are these: for TGI (%): Day 36, P<0.001; for mean tumor volume: Day 36 after first administration. The class given is in vivo, BALB/c nude mice.
Data set [8] has as its system HuPrime® pancreatic cancer PA1280 subcutaneous xenograft model. The experiment in a line: Pancreatic cancer PA1280 subcutaneous xenograft efficacy model. The class given is in vivo, BALB/c nude mice. The procedure: The drug was administered via tail vein injection once weekly for a total of three weeks, followed by one week of observation.
Setting [9] is: 1 mg/kg QD×5, 16 days off, QD×5.
[10] abbreviates: 2 mg/kg once weekly for 2 weeks.

The values that follow come from EP4775209A1 (Ascentawits Pharmaceuticals, Ltd., priority 2023, dated 2025).

What is called Vd is a proportionality between amount in the body and measured concentration, not a real space. Lower therefore signals confinement near the circulation. One may read the clearance as a measure of how efficiently the substance is removed, as volume per time. Lower therefore signals inefficient removal.

Regarding `C[C@H](OP(=O)(N1CC1)N1CC1)c1ccc([N+](=O)[O-])c(Oc2cccc(C(=O)N(C)C)c2)c1` [AST-3424], the “tolerability (body weight changes and mortality)” value in data set [1] was “well tolerated”; in data set [5] (AST-3424 groups 1 mg/kg QD×5 and 2 mg/kg QW, no animal deaths, no apparent drug toxicity), “well tolerated”; in data set [6] (1 mg/kg QD×5, 2 cycles, no animal deaths) it was “well tolerated”; in data set [7] (AST-3424 groups 0.5, 1 mg/kg QD×5 and 2 mg/kg QW, no animal deaths, no apparent drug toxicity), “well tolerated”; in data set [8] (2.5 mg/kg once weekly for three weeks, no animal deaths, no apparent drug toxicity), “well tolerated”. The T1/2 result in data set [2] (after intravenous OBI-3424, US patients, parent drug and metabolite) was “approximately 0.4 hours”. In addition, in data set [2] (doses ranging from 1 to 14 mg/m^2, minimal accumulation after repeated administration), the pharmacokinetic characteristics result is “linear pharmacokinetic characteristics”. The “effect on the orthotopic model of human liver cancer in mice” value in data set [3] is reported as “strong inhibitory effect”. The same molecule came in with a Vd in data set [4] of 0.223 to 0.676 L/kg. Besides, in data set [4], the clearance fell in the range of 11.8 to 18.2 mL/min/kg. The “TGI (%)” value in data set [5] (setting [9]) is 97.60%; in data set [5] (setting [10]), 94.83%; in data set [6] (day 29 after first administration, AST-3424 1 mg/kg QD×5, 16 days off, QD×5 (P < 0.001), ifosfamide 60 mg/kg QD×5/week for 2 weeks (p > 0.05)) it was 95.62%; in data set [7] (0.5 mg/kg QD×5, 16 days off, QD×5) it was 91.77%; in data set [7] (setting [9]), 92.99%; in data set [7] (setting [10]), 88.53%. Further, the mean tumor volume in data set [5] (1 mg/kg QD×5, 16 days off, QD×5, vehicle 1182.66) is recorded as 29.50 mm^3; in data set [5] (setting [10]), 64.50 mm^3; in data set [6] (day 29 after first administration, AST-3424 1 mg/kg QD×5, 16 days off, QD×5, ifosfamide 60 mg/kg QD×5/week for 2 weeks, negative control 2238.97), 94.42 mm^3; in data set [7] (0.5 mg/kg QD×5, 16 days off, QD×5, vehicle 661.61), 54.83 mm^3; in data set [7] (setting [9]) it was 46.05 mm^3; in data set [7] (setting [10]), 76.78 mm^3. This molecule also returned a mean tumor volume in data set [8] (2.5 mg/kg tail vein once weekly for three weeks, Day 27, vehicle 475.07) of 190.34 mm^3. Besides, the tumor clearance entry in data set [6] (1 mg/kg QD×5, 2 cycles, 6 mice per group) was “the tumor in one mouse was cleared”.
